The text below walks through data of publication PMC10698726 (Molecular Pharmaceutics, 2023).

The target of one data set is T1, OCT2 (Homo sapiens, UniProt O15244).
T1 sequence (O15244 1-555): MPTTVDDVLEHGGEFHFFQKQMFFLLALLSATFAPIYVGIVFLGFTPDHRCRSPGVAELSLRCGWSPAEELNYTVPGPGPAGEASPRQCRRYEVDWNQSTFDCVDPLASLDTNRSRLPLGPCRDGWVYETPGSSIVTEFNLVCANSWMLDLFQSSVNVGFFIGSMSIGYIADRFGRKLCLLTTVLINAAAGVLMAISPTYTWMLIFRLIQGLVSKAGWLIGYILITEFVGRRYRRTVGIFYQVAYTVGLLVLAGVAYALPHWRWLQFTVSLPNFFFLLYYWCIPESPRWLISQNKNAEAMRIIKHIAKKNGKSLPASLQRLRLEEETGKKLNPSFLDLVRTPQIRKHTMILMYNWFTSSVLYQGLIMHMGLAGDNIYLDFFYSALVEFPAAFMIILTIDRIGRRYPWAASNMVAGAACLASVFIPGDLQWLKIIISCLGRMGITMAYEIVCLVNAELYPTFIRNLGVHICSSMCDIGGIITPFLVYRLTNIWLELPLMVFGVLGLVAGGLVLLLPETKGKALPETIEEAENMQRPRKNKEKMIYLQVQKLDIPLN
As to the kind of experiment: Inhibition of model substrate uptake in OCT2-overexpressing HEK293 cells. Particulars: for IC50: IC50 [μM], OCT2, Table 1; for (S,S)-Ethambutol inhibition [%] / ASP+ inhibition [%] / N-Ethyllidocaine inhibition [%] / inhibition at 5 min, 20 μM: OCT2, 20 μM inhibitor, 5 min.

Another data set deals with T2, OCT3 (Homo sapiens, UniProt O75751).
T2 construct: expressed in transfected cells; host or cells: HEK293
T2 sequence (O75751 1-556): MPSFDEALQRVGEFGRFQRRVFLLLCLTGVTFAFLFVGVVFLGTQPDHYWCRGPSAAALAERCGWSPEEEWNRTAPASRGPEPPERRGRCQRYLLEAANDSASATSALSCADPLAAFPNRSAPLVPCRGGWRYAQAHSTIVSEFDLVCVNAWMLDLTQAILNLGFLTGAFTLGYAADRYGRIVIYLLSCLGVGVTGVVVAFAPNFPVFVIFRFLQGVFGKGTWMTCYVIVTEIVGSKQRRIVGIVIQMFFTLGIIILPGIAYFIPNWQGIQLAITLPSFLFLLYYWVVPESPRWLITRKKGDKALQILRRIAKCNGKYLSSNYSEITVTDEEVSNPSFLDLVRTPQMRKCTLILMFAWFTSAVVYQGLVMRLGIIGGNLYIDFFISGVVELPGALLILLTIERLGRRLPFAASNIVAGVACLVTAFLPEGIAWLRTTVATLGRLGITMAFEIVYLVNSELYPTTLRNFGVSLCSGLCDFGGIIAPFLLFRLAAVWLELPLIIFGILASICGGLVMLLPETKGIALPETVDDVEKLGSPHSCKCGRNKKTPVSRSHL
Briefly: Inhibition of model substrate uptake in OCT3-overexpressing HEK293 cells. To be noted: 20 μM inhibitor, 5 min. The class given is cell-based. Put shortly:
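IC50 values were fitted with a Hill equation from net uptake, calculated as uptake in overexpressing HEK293 cells minus empty-vector control uptake. Cells were exposed for 5 min to 2 μM model substrate alone, with 20 μM inhibitor, or with a concentration series. Uptake was quantified by ASP^+ fluorescence or LC–MS/MS after lysis in 80% acetonitrile.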

The conditions of data set [1]: oral administration, cited from earlier work.
In another data set the target is T3, OCT1 (Homo sapiens, UniProt O15245).
T3 sequence (O15245 1-554): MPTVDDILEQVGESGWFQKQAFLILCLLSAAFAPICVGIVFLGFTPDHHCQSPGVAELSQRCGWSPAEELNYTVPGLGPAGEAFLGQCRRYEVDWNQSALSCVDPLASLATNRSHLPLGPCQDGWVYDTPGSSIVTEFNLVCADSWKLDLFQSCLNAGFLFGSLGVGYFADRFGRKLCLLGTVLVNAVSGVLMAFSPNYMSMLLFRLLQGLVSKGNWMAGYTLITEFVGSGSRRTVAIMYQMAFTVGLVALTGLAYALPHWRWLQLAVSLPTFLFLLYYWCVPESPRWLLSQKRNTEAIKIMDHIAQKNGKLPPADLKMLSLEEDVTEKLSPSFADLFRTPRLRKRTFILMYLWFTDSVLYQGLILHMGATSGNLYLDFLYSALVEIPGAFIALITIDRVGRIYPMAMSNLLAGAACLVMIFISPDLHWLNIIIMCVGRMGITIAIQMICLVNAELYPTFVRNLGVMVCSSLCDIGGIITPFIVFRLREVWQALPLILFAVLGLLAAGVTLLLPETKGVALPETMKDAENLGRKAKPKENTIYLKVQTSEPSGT
Briefly: Inhibition of model substrate uptake in OCT1-overexpressing HEK293 cells. The format is cell-based. On the set-up: expressed in transfected cells; host or cells: HEK293. To be noted: OCT1, 20 μM inhibitor, 5 min; for inhibition at 5 min, 20 μM: human, OCT1-overexpressing HEK293 cells. On the procedure: (§1) Koepsell and Gorbulev (University of Würzburg, Germany).
Fluorescence quantification was performed in technical duplicates.

The next data set deals with T4, NET (Homo sapiens, UniProt P23975).
T4 construct: expressed in transfected cells; host or cells: HEK293
T4 sequence (P23975 whole entry): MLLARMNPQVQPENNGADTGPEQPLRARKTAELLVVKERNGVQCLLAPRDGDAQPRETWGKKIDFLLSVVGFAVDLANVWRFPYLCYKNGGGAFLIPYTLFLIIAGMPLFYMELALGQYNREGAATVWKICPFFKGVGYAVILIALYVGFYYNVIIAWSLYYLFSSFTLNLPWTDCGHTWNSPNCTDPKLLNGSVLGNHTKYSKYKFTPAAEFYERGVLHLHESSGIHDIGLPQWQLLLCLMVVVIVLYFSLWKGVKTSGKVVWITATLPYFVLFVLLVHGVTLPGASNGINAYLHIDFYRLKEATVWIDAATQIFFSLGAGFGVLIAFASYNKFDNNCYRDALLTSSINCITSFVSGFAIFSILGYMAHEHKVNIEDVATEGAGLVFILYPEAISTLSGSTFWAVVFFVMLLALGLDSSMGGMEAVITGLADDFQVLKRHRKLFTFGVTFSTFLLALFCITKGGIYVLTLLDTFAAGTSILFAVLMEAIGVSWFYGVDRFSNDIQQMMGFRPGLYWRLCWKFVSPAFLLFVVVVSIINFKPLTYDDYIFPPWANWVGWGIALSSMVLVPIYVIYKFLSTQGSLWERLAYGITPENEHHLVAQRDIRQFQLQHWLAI
As to the kind of experiment: Concentration-dependent MPP+ uptake, NET-overexpressing HEK293 cells. Particulars: this study. The format is in vitro ADME. As to the method: as §1
(§2) Prior to inhibition studies, the used model substrates were validated in concentration-dependent uptake experiments if no literature data were available (Table S2 and Figures S2 and S3). Thereby, we ensured that the model substrate concentration used in the subsequent inhibition experiments was sufficiently below the Km value of its uptake kinetics. […] On the day of the experiment, the cells were washed once with prewarmed to 37 °C HBSS (Thermo Fisher Scientific, Darmstadt, Germany) supplemented with 10 mM HEPES and pH adjusted to 7.4 (Sigma-Aldrich)—hereafter termed HBSS+. For concentration-dependent experiments, the cells were incubated with increasing substrate concentrations for 2 min. Uptake was terminated by adding ice-cold HBSS+. Afterward, the cells were washed twice with ice-cold HBSS+, and cell lysis was done with 80% (v/v) acetonitrile (LGC Standards, Wesel, Germany) to which an internal standard for eventual LC–MS/MS analysis had been added. Intracellularly accumulated substrates were then quantified by LC–MS/MS analysis, and calibration was performed with known concentrations of the respective substances. All uptake data were normalized to the number of seeded cells by measuring the total protein content in radioimmunoprecipitation assay buffer-lysed cells in a bicinchoninic acid assay.[29]

The target in the next data set is T5, DAT (Homo sapiens, UniProt Q01959).
T5 construct: expressed in transfected cells; host or cells: HEK293
T5 sequence (Q01959 whole entry): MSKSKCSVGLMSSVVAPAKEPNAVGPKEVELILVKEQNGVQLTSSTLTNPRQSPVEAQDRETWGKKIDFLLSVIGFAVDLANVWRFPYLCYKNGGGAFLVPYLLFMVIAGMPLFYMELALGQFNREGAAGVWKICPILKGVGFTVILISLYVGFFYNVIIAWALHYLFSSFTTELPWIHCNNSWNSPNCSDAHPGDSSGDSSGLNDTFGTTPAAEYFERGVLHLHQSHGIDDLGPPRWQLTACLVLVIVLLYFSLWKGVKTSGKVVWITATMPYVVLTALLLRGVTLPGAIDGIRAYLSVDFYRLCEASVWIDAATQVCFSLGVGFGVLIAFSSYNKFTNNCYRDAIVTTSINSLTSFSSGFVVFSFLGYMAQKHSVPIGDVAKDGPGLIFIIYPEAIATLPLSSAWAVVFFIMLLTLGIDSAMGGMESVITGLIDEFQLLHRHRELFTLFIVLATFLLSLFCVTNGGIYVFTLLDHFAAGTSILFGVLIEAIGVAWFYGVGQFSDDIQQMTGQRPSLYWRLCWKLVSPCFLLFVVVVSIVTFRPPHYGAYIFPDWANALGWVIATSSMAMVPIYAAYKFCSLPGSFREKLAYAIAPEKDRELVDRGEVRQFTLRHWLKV
As to the kind of experiment: Concentration-dependent MPP+ uptake, DAT-overexpressing HEK293 cells. Particulars: this study. The class given is in vitro ADME. As to the method: as §1, §2

Another data set addresses T6, SERT (Homo sapiens, UniProt P31645).
T6 construct: expressed in transfected cells; host or cells: HEK293
Briefly: Concentration-dependent MPP+ uptake, SERT-overexpressing HEK293 cells. The class given is in vitro ADME. To be noted: this study. As to the method: as §1, §2

Substrate in data set [2]: CCC(CO)NCCNC(CC)CO
Briefly: cells, lysate or membranes named. To be noted: other: OCT1, 2 min uptake, this study.

The mark [3] stands for this setting: HEK293, 5 min, read-out: (S)-Zolmitriptan inhibition [%], OCT3, 2 μM (S)-zolmitriptan.
Where [4] appears, read: HEK293, 5 min, read-out: (S,S)-Ethambutol inhibition [%], OCT3, 2 μM (S,S)-ethambutol.
The mark [5] stands for this setting: HEK293, OCT3, 2 μM ASP+, read-out: ASP+ inhibition [%].
Setting [6] is: amisulpride, single dose (50 mg).
[7] abbreviates: pH 7.4, probe (S,S)-ethambutol (2 μM), (S,S)-Ethambutol inhibition [%], 2 μM (S,S)-ethambutol.
Where [8] appears, read: pH 7.4, probe ASP+ (2 μM), 2 μM ASP+, mean of three experiments, read-out: ASP+ inhibition [%].
The mark [9] stands for this setting: pH 7.4, probe sumatriptan (2 μM), 2 μM sumatriptan, read-out: Sumatriptan inhibition [%].
The mark [10] stands for this setting: human, OCT2-overexpressing HEK293 cells, pH 7.4, probe (S,S)-ethambutol (2 μM), (S,S)-Ethambutol inhibition [%], 2 μM (S,S)-ethambutol.
[11] abbreviates: human, OCT2-overexpressing HEK293 cells, pH 7.4, probe ASP+ (2 μM), ASP+ inhibition [%], 2 μM ASP+.
The mark [12] stands for this setting: human, OCT2-overexpressing HEK293 cells, pH 7.4, probe N-ethyllidocaine (2 μM), N-Ethyllidocaine inhibition [%], 2 μM N-ethyllidocaine.
The mark [13] stands for this setting: citalopram, multiple doses (40 mg, once daily for 21 d).

Where two headings read alike, the source gives them in different places.

T6 sequence (P31645 whole entry): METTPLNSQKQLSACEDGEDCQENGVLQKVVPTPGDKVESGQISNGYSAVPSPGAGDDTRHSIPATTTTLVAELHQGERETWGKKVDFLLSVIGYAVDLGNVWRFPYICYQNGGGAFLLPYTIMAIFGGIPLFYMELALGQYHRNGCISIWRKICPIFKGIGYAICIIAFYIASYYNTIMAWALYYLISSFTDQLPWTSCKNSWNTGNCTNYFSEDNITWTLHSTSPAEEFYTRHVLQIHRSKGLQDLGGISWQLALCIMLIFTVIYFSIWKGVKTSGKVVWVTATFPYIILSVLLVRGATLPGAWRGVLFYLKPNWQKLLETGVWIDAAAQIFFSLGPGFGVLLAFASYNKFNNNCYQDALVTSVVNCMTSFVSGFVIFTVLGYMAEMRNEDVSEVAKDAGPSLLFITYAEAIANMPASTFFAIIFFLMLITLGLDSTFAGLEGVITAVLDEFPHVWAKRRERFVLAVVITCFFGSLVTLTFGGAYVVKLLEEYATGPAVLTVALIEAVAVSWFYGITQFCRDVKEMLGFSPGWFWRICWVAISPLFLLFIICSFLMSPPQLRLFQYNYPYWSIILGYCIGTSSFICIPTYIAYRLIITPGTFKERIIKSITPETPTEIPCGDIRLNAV

In the case of `CCN1CCC[C@@H]1CNC(=O)c1cc(S(=O)(=O)CC)c(N)cc1OC` [(R)-Amisulpride], at OCT2, the IC50 came to 9.4 µM. Further, the “(S,S)-Ethambutol inhibition [%]” value at OCT2 (2 μM (S,S)-ethambutol) was -5.7%. Further, the “ASP+ inhibition [%]” value at OCT2 (2 μM ASP+) is 65.9%. Also, the “N-Ethyllidocaine inhibition [%]” value on OCT2 (2 μM N-ethyllidocaine) amounted to 11.3%. The figures for the inhibition at 20 µM on OCT3 (setting [3]), at OCT3 (setting [4]) and on OCT3 (setting [5]) were 56%, 81.3% and 37.9%, respectively. Further, the “Imax” value in data set [1] (setting [6]) was 0.158 µM. The inhibition at 5 min, 20 μM against OCT1 (setting [7]) was determined as 57.7%; at OCT1 (setting [8]), 25.2%; on OCT1 (setting [9]) it was 29.3%.
Regarding `CN(C)CCC[C@]1(c2ccc(F)cc2)OCc2cc(C#N)ccc21` [(R)-Citalopram], the IC50 on OCT2 was 17.8 µM. Further, the inhibition at 5 min, 20 μM turned out to be 1.4% at OCT2 (setting [10]); 52.1% against OCT2 (setting [11]); 28.4% on OCT2 (setting [12]); 72.8% against OCT1 (setting [7]); 28.9% at OCT1 (setting [8]); 78% at OCT1 (setting [9]). Further, the inhibition at 20 µM on OCT3 (setting [3]) stood at 11.8%; on OCT3 (setting [4]) it was 17.2%; at OCT3 (setting [5]) it was 4.5%. For the same molecule, the “Imax” value in data set [1] (setting [13]) was 0.228 µM.
As to `CCN1CCC[C@H]1CNC(=O)c1cc(S(=O)(=O)CC)c(N)cc1OC` [(S)-Amisulpride], at OCT2, the IC50 came out at 29.8 µM. Moreover, the “(S,S)-Ethambutol inhibition [%]” value at OCT2 (2 μM (S,S)-ethambutol) is -13.2%; at OCT3 (OCT3, 2 μM (S,S)-ethambutol), 73.1%; on OCT1 (2 μM (S,S)-ethambutol), 51.7%. In addition, the “ASP+ inhibition [%]” value came to 38.0% on OCT2 (2 μM ASP+); 33.7% on OCT3 (OCT3, 2 μM ASP+); 23.5% on OCT1 (2 μM ASP+, mean of three experiments). Also, the “N-Ethyllidocaine inhibition [%]” value at OCT2 (2 μM N-ethyllidocaine) was 1.9%. Further, the selectivity ratio at 5 min on OCT2 (human, OCT2-overexpressing HEK293 cells, pH 7.4) was found to be 3.2. Further, the “(S)-Zolmitriptan inhibition [%]” value at OCT3 (OCT3, 2 μM (S)-zolmitriptan) is 46.0%. Besides, in data set [1] (setting [6]), the “Imax” value is 0.182 µM. Besides, the “Sumatriptan inhibition [%]” value at OCT1 (2 μM sumatriptan) came to 15.2%.
`CN(C)CCC[C@@]1(c2ccc(F)cc2)OCc2cc(C#N)ccc21` [(S)-Citalopram]: on OCT2, the IC50 amounted to 10.7 µM. Further, the inhibition at 5 min, 20 μM was -9.7% at OCT2 (setting [10]); 68.6% at OCT2 (setting [11]); 26.5% on OCT2 (setting [12]); 80.1% on OCT1 (setting [7]); 37.2% at OCT1 (setting [8]); 77.6% on OCT1 (setting [9]). Besides, the values for the inhibition at 20 µM at OCT3 (setting [3]), on OCT3 (setting [4]) and on OCT3 (setting [5]) were 19.2%, 31.7% and 10.9%, respectively. For the same molecule, the “Imax” value in data set [1] (setting [13]) was 0.154 µM.
As to `C[n+]1ccc(-c2ccccc2)cc1` [MPP+, 1-methyl-4-phenylpyridinium], the figures for the “vmax ± SEM [pmol × mg Protein−1 × min−1]” value at NET, at DAT and on SERT were 381 pmol × mg Protein−1 × min−1, 2107 pmol × mg Protein−1 × min−1 and 627 pmol × mg Protein−1 × min−1, respectively. Also, the results for the Km at NET (read-out: Km ± SEM), at DAT (read-out: Km ± SEM) and at SERT (read-out: Km ± SEM) were 2.5 µM, 20.1 µM and 21.1 µM, respectively. For the same molecule, the “Clint ± SEM” value at NET (vmax over Km) is given as 152; at DAT (vmax over Km), 104; at SERT (vmax over Km), 29.7.

B1: OCT1 (Homo sapiens) (protein)
chain: T3 sequence (O15245 1-554)
As for B1, in data set [2], the Km worked out at 167 µM and the Vmax came out at 0.00235 µmol/min/mg.

As usually defined, the IC50 is the concentration that inhibits the measured activity by half. A low value points to greater potency in that assay. In general, inhibition refers to the drop in the measured response relative to a control, in per cent. By Km is commonly meant the substrate concentration at which the rate is half of its maximum. Broadly, the Vmax is the rate approached at saturating substrate.
